# Measurements taken from PubChem BioAssay AID256 (DTP/NCI, 2004).
# “And” between values parts separate entries of the source, which are not always exact repeats. Equal entries are not always repeated. Inconclusive results and toxic doses are left out.
# System: CD2F1 mice, L1210 leukemia ip, survival T/C
# Assay: NCI In Vivo Anticancer Drug Screen. Data for tumor model L1210 Leukemia (intraperitoneal) in CD2F1 (CDF1) mice
# Details: higher = longer survival
# Procedure, shortened: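 Mice carrying a transplanted tumor received test compound or vehicle alone. The value is the measurement in the treated group divided by that in the vehicle-treated control group.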
# [1] = endpoint: mean survival time, dose: 100.0 mg/kg/injection, schedule: Q04DX003 (ip), vehicle: saline with Tween-80
# [2] = endpoint: mean survival time, dose: 200.0 mg/kg/injection, schedule: Q04DX003 (ip), vehicle: saline with Tween-80
# [3] = endpoint: mean survival time, dose: 25.0 mg/kg/injection, schedule: Q04DX003 (ip), vehicle: saline with Tween-80
# [4] = endpoint: mean survival time, dose: 50.0 mg/kg/injection, schedule: Q04DX003 (ip), vehicle: saline with Tween-80
# [5] = endpoint: mean survival time, dose: 400.0 mg/kg/injection, schedule: Q04DX003 (ip), vehicle: saline with Tween-80
# [6] = endpoint: mean survival time, dose: 100.0 mg/kg/injection, schedule: Q01DX009 (ip), vehicle: saline with Tween-80
# [7] = endpoint: mean survival time, dose: 200.0 mg/kg/injection, schedule: Q01DX009 (ip), vehicle: saline with Tween-80
# [8] = endpoint: mean survival time, dose: 400.0 mg/kg/injection, schedule: Q01DX009 (ip), vehicle: saline with Tween-80
smiles,measurement,setting,value
CCCCC(OC(=O)Nc1cccc2ccccc12)C(C)C (stereo not drawn),T/C,[1],91 % of control
same,T/C,[2],88 % of control
COc1cc2ccc(CCN)cc2cc1OC,T/C,"endpoint: mean survival time, dose: 12.5 mg/kg/injection, schedule: Q04DX003 (ip), vehicle: saline with Tween-80",102 % of control
same,T/C,[3],102 % of control
same,T/C,[4],96 % of control
ICC1CCC(CI)CC1 (stereo not drawn),T/C,"endpoint: mean survival time, dose: 100.0 mg/kg/injection, schedule: Q01DX001 (ip), vehicle: saline",98 % of control
same,T/C,"endpoint: mean survival time, dose: 200.0 mg/kg/injection, schedule: Q01DX001 (ip), vehicle: saline",96 % of control
same,T/C,"endpoint: mean survival time, dose: 400.0 mg/kg/injection, schedule: Q01DX001 (ip), vehicle: saline",93 % of control
Cc1cccc(CCl)n1,T/C,"endpoint: mean survival time, dose: 100.0 mg/kg/injection, schedule: Q01DX009 (ip), vehicle: saline",98 % of control
same,T/C,"endpoint: mean survival time, dose: 100.0 mg/kg/injection, schedule: Q04DX003 (ip), vehicle: saline",101 % of control
same,T/C,"endpoint: mean survival time, dose: 200.0 mg/kg/injection, schedule: Q01DX009 (ip), vehicle: saline",90 % of control
same,T/C,"endpoint: mean survival time, dose: 200.0 mg/kg/injection, schedule: Q04DX003 (ip), vehicle: saline",95 % of control
same,T/C,"endpoint: mean survival time, dose: 400.0 mg/kg/injection, schedule: Q04DX003 (ip), vehicle: saline",87 % of control
Cc1ccccc1C[P+](c1ccccc1)(c1ccccc1)c1ccccc1,T/C,"endpoint: mean survival time, dose: 1.0 mg/kg/injection, schedule: Q01DX009 (ip), vehicle: saline",88 % of control
same,T/C,"endpoint: mean survival time, dose: 2.0 mg/kg/injection, schedule: Q01DX009 (ip), vehicle: saline",96 % of control
same,T/C,"endpoint: mean survival time, dose: 4.0 mg/kg/injection, schedule: Q01DX009 (ip), vehicle: saline",92 % of control
same,T/C,"endpoint: mean survival time, dose: 8.0 mg/kg/injection, schedule: Q01DX009 (ip), vehicle: saline",108 % of control
CCOC(=O)c1ncn(C2OC(CO)C(O)C2O)c1N (stereo not drawn),T/C,"endpoint: mean survival time, dose: 12.5 mg/kg/injection, schedule: Q01DX005 (ip), vehicle: water",97 % of control
same,T/C,"endpoint: mean survival time, dose: 25.0 mg/kg/injection, schedule: Q01DX005 (ip), vehicle: water",98 % of control
same,T/C,"endpoint: mean survival time, dose: 50.0 mg/kg/injection, schedule: Q01DX005 (ip), vehicle: water",103 % of control
same,T/C,"endpoint: mean survival time, dose: 100.0 mg/kg/injection, schedule: Q01DX005 (ip), vehicle: water",101 % of control
same,T/C,"endpoint: mean survival time, dose: 200.0 mg/kg/injection, schedule: Q01DX005 (ip), vehicle: water",97 % of control
CS(=O)(=O)OC(OS(C)(=O)=O)(OS(C)(=O)=O)OS(C)(=O)=O,T/C,[1],111 % of control
same,T/C,[2],105 % of control
same,T/C,[5],105 % of control
S=C(Sc1ccccc1)Sc1ccccc1,T/C,[6],88 % of control
same,T/C,[1],92 % of control
same,T/C,[7],95 % of control
same,T/C,[2],103 % of control
same,T/C,[8],91 % of control
same,T/C,[5],104 % of control
O=c1nc(NCC2CCCO2)ccn1C1OC(CO)C(O)C1O (stereo not drawn),T/C,"endpoint: median survival time, dose: 12.5 mg/kg/injection, schedule: Q01DX005 (ip), vehicle: water",101 % of control
same,T/C,"endpoint: median survival time, dose: 25.0 mg/kg/injection, schedule: Q01DX005 (ip), vehicle: water",101 % of control
same,T/C,"endpoint: median survival time, dose: 50.0 mg/kg/injection, schedule: Q01DX005 (ip), vehicle: water",101 % of control
same,T/C,"endpoint: median survival time, dose: 100.0 mg/kg/injection, schedule: Q01DX005 (ip), vehicle: water",97 % of control
same,T/C,"endpoint: median survival time, dose: 200.0 mg/kg/injection, schedule: Q01DX005 (ip), vehicle: water",98 % of control
C=C(C)c1c2ccccc2cc2cccc(Sc3ccccc3)c12,T/C,[6],95 % of control
same,T/C,[7],93 % of control
same,T/C,[8],95 % of control
O=c1[nH]cnc2c1nnn2C1OC(CO)C(O)C1O (stereo not drawn),T/C,"endpoint: median survival time, dose: 50.0 mg/kg/injection, schedule: Q01DX005 (ip), vehicle: saline",121 % of control
same,T/C,"endpoint: median survival time, dose: 200.0 mg/kg/injection, schedule: Q01DX005 (ip), vehicle: saline",156 % of control
same,T/C,"endpoint: median survival time, dose: 400.0 mg/kg/injection, schedule: Q01DX005 (ip), vehicle: saline",160 % of control
same,T/C,"endpoint: median survival time, dose: 400.0 mg/kg/injection, schedule: Q01DX005 (ip), vehicle: suspension in saline",90 % of control
same,T/C,"endpoint: median survival time, dose: 800.0 mg/kg/injection, schedule: Q01DX005 (ip), vehicle: saline",111 % of control
O=c1[nH]c(=O)n(C2CC(O)C(CO)O2)cc1/C=C/c1cccc([N+](=O)[O-])c1 (stereo not drawn),T/C,"endpoint: mean survival time, dose: 6.25 mg/kg/injection, schedule: Q01DX005 (ip), vehicle: distilled water + Tween-80",98 % of control
same,T/C,"endpoint: mean survival time, dose: 12.5 mg/kg/injection, schedule: Q01DX005 (ip), vehicle: distilled water + Tween-80",97 % of control
same,T/C,"endpoint: mean survival time, dose: 25.0 mg/kg/injection, schedule: Q01DX005 (ip), vehicle: distilled water + Tween-80",95 % of control
same,T/C,"endpoint: mean survival time, dose: 50.0 mg/kg/injection, schedule: Q01DX005 (ip), vehicle: distilled water + Tween-80",93 % of control
same,T/C,"endpoint: mean survival time, dose: 100.0 mg/kg/injection, schedule: Q01DX005 (ip), vehicle: distilled water + Tween-80",94 % of control
Nc1ncnc(N)c1NC(=O)c1ccc(CCCCc2ccccc2)cc1,T/C,[1],104 % of control
same,T/C,[2],96 % of control
same,T/C,[5],92 % of control
C1CCC(C2CCCC[N-]2)[N-]C1.CSCCC([NH-])C(=O)O.[Cl][Pt] (stereo not drawn),T/C,"endpoint: median survival time, dose: 10.0 mg/kg/injection, schedule: Q04DX003 (ip), vehicle: saline",101 % of control
same,T/C,"endpoint: median survival time, dose: 20.0 mg/kg/injection, schedule: Q04DX003 (ip), vehicle: saline",101 % of control
same,T/C,"endpoint: median survival time, dose: 40.0 mg/kg/injection, schedule: Q04DX003 (ip), vehicle: saline",94 % of control
same,T/C,"endpoint: median survival time, dose: 80.0 mg/kg/injection, schedule: Q04DX003 (ip), vehicle: saline",101 % of control and 103 % of control
same,T/C,"endpoint: median survival time, dose: 160.0 mg/kg/injection, schedule: Q04DX003 (ip), vehicle: saline",96 % of control
same,T/C,"endpoint: median survival time, dose: 320.0 mg/kg/injection, schedule: Q04DX003 (ip), vehicle: saline",108 % of control
Cc1cc(C)c(/C=N/NC(=O)NN)c(C)c1,T/C,[1],91 % of control
same,T/C,[2],96 % of control
same,T/C,[5],88 % of control
CC1=CCCC2(CCC3(C)CC32)C1(C)C (stereo not drawn),T/C,"endpoint: mean survival time, dose: 100.0 mg/kg/injection, schedule: Q04DX003 (ip), vehicle: acetone",98 % of control
same,T/C,"endpoint: mean survival time, dose: 200.0 mg/kg/injection, schedule: Q04DX003 (ip), vehicle: acetone",102 % of control
same,T/C,"endpoint: mean survival time, dose: 400.0 mg/kg/injection, schedule: Q04DX003 (ip), vehicle: acetone",110 % of control
CCOC(=O)CSCC(=O)C(C)(C)C,T/C,"endpoint: mean survival time, dose: 100.0 mg/kg/injection, schedule: Q01DX001 (ip), vehicle: saline with Tween-80",98 % of control
same,T/C,"endpoint: mean survival time, dose: 200.0 mg/kg/injection, schedule: Q01DX001 (ip), vehicle: saline with Tween-80",98 % of control
same,T/C,"endpoint: mean survival time, dose: 400.0 mg/kg/injection, schedule: Q01DX001 (ip), vehicle: saline with Tween-80",102 % of control
OCCNC(=S)Nc1ccccc1,T/C,"endpoint: mean survival time, dose: 7.5 mg/kg/injection, schedule: Q01DX009 (ip), vehicle: saline",97 % of control
same,T/C,"endpoint: mean survival time, dose: 15.0 mg/kg/injection, schedule: Q01DX009 (ip), vehicle: saline",95 % of control
same,T/C,[3],98 % of control
same,T/C,"endpoint: mean survival time, dose: 30.0 mg/kg/injection, schedule: Q01DX009 (ip), vehicle: saline",89 % of control
same,T/C,[4],101 % of control
same,T/C,[1],100 % of control
CSc1nc(NC2OC(CO)C(O)C(O)C2O)c(Br)c(=O)[nH]1 (stereo not drawn),T/C,"endpoint: median survival time, dose: 12.5 mg/kg/injection, schedule: Q01DX005 (ip), vehicle: saline with Tween-80",101 % of control
same,T/C,"endpoint: median survival time, dose: 25.0 mg/kg/injection, schedule: Q01DX005 (ip), vehicle: saline with Tween-80",101 % of control
same,T/C,"endpoint: median survival time, dose: 50.0 mg/kg/injection, schedule: Q01DX005 (ip), vehicle: saline with Tween-80",100 % of control
same,T/C,"endpoint: median survival time, dose: 100.0 mg/kg/injection, schedule: Q01DX005 (ip), vehicle: saline with Tween-80",101 % of control
same,T/C,"endpoint: median survival time, dose: 200.0 mg/kg/injection, schedule: Q01DX005 (ip), vehicle: saline with Tween-80",100 % of control
